The values that follow come from ChEMBL document CHEMBL2157914, “Synthesis, anti-inflammatory and antimicrobial evaluation of novel 1-acetyl-3,5-diaryl-4,5-dihydro (1H) pyrazole derivatives bearing urea, thiourea and sulfonamide moieties” (2012).

The subject of test [1] is THP-1. Put plainly: Antiinflammatory activity in human THP1 cells assessed as inhibition of LPS-stimulated TNFalpha production at 10 uM incubated for 30 mins prior to LPS-challenge measured 24 hrs post LPS challenge by ELISA. Format: functional. (In general: In an ELISA, binding on a coated surface is turned into a signal by an enzyme label.)
Test [2] has as its system THP-1. Put plainly: Antiinflammatory activity in human THP1 cells assessed as inhibition of LPS-stimulated IL-6 production at 10 uM incubated for 30 mins prior to LPS-challenge measured 24 hrs post LPS-challenge by ELISA. Format: functional.
For test [3], the system named is Escherichia coli. The test is described as follows: Antibacterial activity against Escherichia coli MTCC 443 after 24 hrs by agar well diffusion method. In kind it is functional. The settings on record: MTCC 443, 24 h. In general terms: A growth-free zone around the sample is the usual read-out of agar diffusion tests.
The test system of test [4] is Staphylococcus aureus. Put plainly: Antibacterial activity against Staphylococcus aureus MTCC 96 up to 200 ug/mL after 24 hrs by agar well diffusion method. In kind it is functional, organism-based.
The subject of test [5] is Bacillus subtilis. Put plainly: Antibacterial activity against Bacillus subtilis MTCC 441 up to 200 ug/mL after 24 hrs by agar well diffusion method. In kind it is functional, organism-based.
The test system of test [6] is Salmonella typhimurium. The test is described as follows: Antibacterial activity against Salmonella typhimurium MTCC 98 up to 200 ug/mL after 24 hrs by agar well diffusion method. Format: functional, organism-based. The settings on record: Salmonella enterica subsp. enterica serovar Typhimurium.
The test system of test [7] is Candida albicans. Put plainly: Antifungal activity against Candida albicans MTCC 227 up to 200 ug/mL after 2 to 3 days by agar well diffusion method. Format: functional, organism-based.
Test [8] relates to Aspergillus niger. The test is described as follows: Antifungal activity against Aspergillus niger MTCC 281 up to 200 ug/mL after 2 to 3 days by agar well diffusion method. In kind it is functional, organism-based.
In test [9] the test system is Fusarium solani. The test is described as follows: Antifungal activity against Fusarium solani MTCC 350 up to 200 ug/mL after 2 to 3 days by agar well diffusion method. In kind it is functional, organism-based.
Test [10] relates to Aspergillus flavus. Put plainly: Antifungal activity against Aspergillus flavus MTCC 277 up to 200 ug/mL after 2 to 3 days by agar well diffusion method. In kind it is functional, organism-based.
Test [11] has as its system Candida albicans. Put plainly: Ratio of miconazole MIC to compound MIC for Candida albicans MTCC 227. Format: functional.
In test [12] the test system is Aspergillus flavus. The test is described as follows: Ratio of miconazole MIC to compound MIC for Aspergillus flavus MTCC 277. Format: functional.
Test [13] deals with Staphylococcus aureus. Put plainly: Antibacterial activity against Staphylococcus aureus MTCC 96 after 24 hrs by agar well diffusion method. Format: functional. The settings on record: MTCC 96, 24 h.
Test [14] has as its system Bacillus subtilis. The test is described as follows: Antibacterial activity against Bacillus subtilis MTCC 441 after 24 hrs by agar well diffusion method. In kind it is functional. The following applies: MTCC 441, 24 h.
Test [15] deals with Salmonella typhimurium. The test is described as follows: Antibacterial activity against Salmonella typhimurium MTCC 98 after 24 hrs by agar well diffusion method. In kind it is functional, Salmonella enterica subsp. enterica serovar Typhimurium. The following applies: Salmonella enterica, MTCC 98, 24 h.
Test [16] concerns Candida albicans. The test is described as follows: Antifungal activity against Candida albicans MTCC 227 after 2 to 3 days by agar well diffusion method. In kind it is functional.
Test [17] relates to Aspergillus niger. Put plainly: Antifungal activity against Aspergillus niger MTCC 281 after 2 to 3 days by agar well diffusion method. Format: functional.
In test [18] the test system is Fusarium solani. The test is described as follows: Antifungal activity against Fusarium solani MTCC 350 after 2 to 3 days by agar well diffusion method. Format: functional.
Test [19] concerns Aspergillus flavus. Put plainly: Antifungal activity against Aspergillus flavus MTCC 277 after 2 to 3 days by agar well diffusion method. Format: functional.
Test [20] concerns Escherichia coli. Put plainly: Antibacterial activity against Escherichia coli MTCC 443 up to 200 ug/mL after 24 hrs by agar well diffusion method. In kind it is functional, organism-based.
Test [21] concerns Fusarium solani. The test is described as follows: Ratio of miconazole MIC to compound MIC for Fusarium solani MTCC 350. In kind it is functional.
Test [22] has as its system Staphylococcus aureus. Put plainly: Ratio of ciprofloxacin MIC to compound MIC for Staphylococcus aureus MTCC 96. Format: functional.
In test [23] the test system is Escherichia coli. Put plainly: Ratio of ciprofloxacin MIC to compound MIC for Escherichia coli MTCC 443. In kind it is functional.
In test [24] the test system is Salmonella typhimurium. The test is described as follows: Ratio of ciprofloxacin MIC to compound MIC for Salmonella typhimurium MTCC 98. In kind it is functional, Salmonella enterica subsp. enterica serovar Typhimurium.
Test [25] has as its system Aspergillus niger. The test is described as follows: Ratio of miconazole MIC to compound MIC for Aspergillus niger MTCC 281. In kind it is functional.

In brackets after ≈: the same amount, converted by molar mass. Activity calls are given as the source filed them. No cut-off for these calls is given here.

On to `COc1ccc(C2=NN(C(C)=O)C(c3ccc(N)cc3)C2)cc1OC` (stereo not given), for which the inhibition at 10 µM in test [1] and in test [2] was 0% throughout. The compound also returned a minimal inhibitory concentration (MIC) in test [3] of 90 µg/mL (≈ 265 µM). Besides, the result in test [4], in [5], in test [6], in test [7], in [8] and in [9] was inactive. Also, the outcome in test [10] was inactive.
With `COc1ccc(C2=NN(C(C)=O)C(c3ccc(NC(=O)Nc4ccc(C(F)(F)F)cc4)cc3)C2)cc1OC` (stereo not given), the Ratio in test [11] and in test [12] was 1.3 in each case. The values for the inhibition at 10 µM in test [1] and in [2] were 3% and 21%, respectively. In addition, the minimum inhibitory concentration (MIC) was 25 µg/mL (≈ 47.5 µM) in [13]; 25 µg/mL (≈ 47.5 µM) in test [14]; 15 µg/mL (≈ 28.5 µM) in [3]; 40 µg/mL (≈ 76 µM) in [15]; 15 µg/mL (≈ 28.5 µM) in [16]; 25 µg/mL (≈ 47.5 µM) in [17]. The MIC in test [18] and in test [19] was 15 µg/mL (≈ 28.5 µM) throughout.
In the case of `COc1ccc(C2=NN(C(C)=O)C(c3ccc(NC(=S)Nc4ccc(F)cc4)cc3)C2)cc1OC` (stereo not given), the figures for the inhibition at 10 µM in [1] and in test [2] were 3% and 10%, respectively. Also, the MIC in test [13] was 80 µg/mL (≈ 162 µM); in [3], 80 µg/mL (≈ 162 µM); in [18], 90 µg/mL (≈ 183 µM). The result in test [5], in [6], in test [7], in test [8] and in [10] was inactive.
For `COc1ccccc1NC(=S)Nc1ccc(C2CC(c3ccc(OC)c(OC)c3)=NN2C(C)=O)cc1` (stereo not given), the inhibition at 10 µM in [1] and in [2] was 0% each time. The values for the minimum inhibitory concentration (MIC) in test [3], in test [16] and in test [18] were 90 µg/mL (≈ 178 µM), 90 µg/mL (≈ 178 µM) and 75 µg/mL (≈ 149 µM), respectively. In addition, the outcome in test [4], in test [5], in test [6], in [8] and in test [10] was inactive.
For `COc1ccc(C2=NN(C(C)=O)C(c3ccc(NS(=O)(=O)c4ccc(OC)c(OC)c4)cc3)C2)cc1OC` (stereo not given), the inhibition at 10 µM in test [1] and in [2] was 0% throughout. The minimum inhibitory concentration (MIC) in test [14], in test [3], in test [15] and in test [18] was 90 µg/mL (≈ 167 µM) in each case. The result in test [4], in test [7], in test [8] and in [10] was inactive.
As for `COc1ccc(C2=NN(C(C)=O)C(c3ccc(NC(=O)Nc4ccc(C)c(C)c4)cc3)C2)cc1OC` (stereo not given), the inhibition at 10 µM in test [1] turned out to be 18%; in [2], 30%. Besides, the result in [4], in test [5], in test [20], in test [6] and in test [8] was inactive. The minimal inhibitory concentration (MIC) in test [16], in test [18] and in test [19] was 90 µg/mL (≈ 185 µM) throughout.
Turning to `COc1ccc(C2=NN(C(C)=O)C(c3ccc(NC(=S)Nc4ccc(C)cc4)cc3)C2)cc1OC` (stereo not given), the inhibition at 10 µM in [1] is 0%; in test [2], 3%. Moreover, the result in [4], in test [5], in [20], in [6], in test [7] and in [8] was inactive. For the same compound, the result in test [9] and in test [10] was inactive.
Take `COc1ccc(C2=NN(C(C)=O)C(c3ccc(NC(=O)Nc4cc(F)ccc4C)cc3)C2)cc1OC` (stereo not given): the inhibition at 10 µM in [1] worked out at 28%; in [2] it was 31%. Moreover, the MIC in test [3] turned out to be 90 µg/mL (≈ 183 µM). Also, the outcome in test [4], in test [5], in test [6], in [7], in [8] and in [9] was inactive. The result in [10] was inactive.
With `COc1ccc(C2=NN(C(C)=O)C(c3ccc(NC(=S)Nc4ccccc4C(F)(F)F)cc3)C2)cc1OC` (stereo not given), the results for the inhibition at 10 µM in [1] and in [2] were 40% and 65%, respectively. Also, in test [3], the MIC was found to be 95 µg/mL (≈ 175 µM). Besides, the result in [4], in test [5], in test [6], in [7], in test [8] and in test [9] was inactive. Moreover, in [10], the result was inactive.
As for `COc1ccc(C2=NN(C(C)=O)C(c3ccc(NS(=O)(=O)c4ccc(C(F)(F)F)cc4)cc3)C2)cc1OC` (stereo not given), the results for the Ratio in test [21] and in test [12] were 1.5 and 2, respectively. The inhibition at 10 µM in test [1] and in test [2] was 0% each time. For the same compound, the minimum inhibitory concentration (MIC) in [13] came out at 70 µg/mL (≈ 128 µM); in test [14], 55 µg/mL (≈ 100 µM); in test [3], 35 µg/mL (≈ 63.9 µM); in test [15], 25 µg/mL (≈ 45.7 µM); in test [16] it was 35 µg/mL (≈ 63.9 µM); in [17] it was 20 µg/mL (≈ 36.5 µM). The minimum inhibitory concentration (MIC) in test [18] and in test [19] was 10 µg/mL (≈ 18.3 µM) in each case.
As to `COc1ccc(C2=NN(C(C)=O)C(c3ccc(NC(=S)Nc4ccc(Cl)cc4)cc3)C2)cc1OC` (stereo not given), the inhibition at 10 µM worked out at 68% in test [1] and 76% in [2]. The MIC in [14], in test [16], in test [18] and in [19] was 90 µg/mL (≈ 177 µM) each time. Further, the result in [4], in [20], in [6] and in test [8] was inactive.
With `COc1ccc(C(=O)/C=C/c2ccc([N+](=O)[O-])cc2)cc1OC`, the inhibition at 10 µM in test [1] and in [2] was 0% each time. The minimum inhibitory concentration (MIC) in test [14] was 90 µg/mL (≈ 287 µM); in test [3], 80 µg/mL (≈ 255 µM); in [15], 90 µg/mL (≈ 287 µM); in test [16], 90 µg/mL (≈ 287 µM). For the same compound, the outcome in [4], in test [8], in test [9] and in test [10] was inactive.
Turning to `COc1ccc(C2=NN(C(C)=O)C(c3ccc(NS(=O)(=O)c4ccc(C(F)(F)F)cc4Br)cc3)C2)cc1OC` (stereo not given), the Ratio in [22] is 2; in test [23], 1.5; in [24] it was 2; in [25], 1.5; in [21], 1.5; in [12], 2. Besides, the inhibition at 10 µM turned out to be 0% in test [1] and 8% in test [2]. The MIC in [13] amounted to 10 µg/mL (≈ 16 µM); in test [14], 15 µg/mL (≈ 23.9 µM); in [3] it was 10 µg/mL (≈ 16 µM); in test [15] it was 10 µg/mL (≈ 16 µM); in [16], 20 µg/mL (≈ 31.9 µM); in test [17] it was 10 µg/mL (≈ 16 µM). The MIC in [18] and in test [19] was 10 µg/mL (≈ 16 µM) in each case.
Consider `COc1ccc(C2=NN(C(C)=O)C(c3ccc(NC(=S)Nc4cccc(C(F)(F)F)c4)cc3)C2)cc1OC` (stereo not given), for which the values for the inhibition at 10 µM in test [1] and in test [2] were 0% and 8%, respectively. Also, the outcome in test [4], in [5], in [20], in test [6], in test [7] and in test [8] was inactive. Besides, the outcome in test [9] and in test [10] was inactive.

In general, inhibition refers to how much of the control response was suppressed. The term MIC denotes the lowest concentration found to suppress growth. A lower MIC goes with greater potency.
